From patent US9402911B2, “Multifunctional small molecules” (The Regents of the University of Michigan, priority 2011, dated 2016)

Molecular target: Folate binding protein (FBP, bovine milk) (Bos taurus, UniProt P02702)
Test: SPR binding to immobilized folate binding protein
Conditions: read-out: equilibrium dissociation constant KD, FBP chip, free MTX
Experimental: SPR analysis was performed in a Biacore® X instrument (Pharmacia Biosensor AB, Uppsala, Sweden).
Folate binding protein (FBP)-presenting chip was prepared at the surface protein density of 11 ng/mm^2 (≈2-3 FBP per 10 nm^2) following an EDC-based amide coupling method as described previously (see, e.g., Hong, S.; et al., Chem. Biol. 2007, 14, 107-15; Plantinga, A.; et al., ACS Med. Chem. Lett. 2011, 2, 363-67; each herein incorporated by reference in their entireties).
In an approach to determine the equilibrium dissociation constants (KD) for G5-MTXn on a quantitative basis, the SPR data was analyzed by using the non-linear regression method as established for SPR analysis (see, e.g., Ober, R. J.; et al., Anal. Biochem. 2003, 312, 57-65; herein incorporated by reference in its entirety). This analytical method enabled the SPR data to be fit according to a linear combination of exponential functions, and to extract the estimates for their kinetic rate constants (kon, koff) and KD (FIG. 7).

Folate binding protein (FBP, bovine milk), sequence (P02702 20-234): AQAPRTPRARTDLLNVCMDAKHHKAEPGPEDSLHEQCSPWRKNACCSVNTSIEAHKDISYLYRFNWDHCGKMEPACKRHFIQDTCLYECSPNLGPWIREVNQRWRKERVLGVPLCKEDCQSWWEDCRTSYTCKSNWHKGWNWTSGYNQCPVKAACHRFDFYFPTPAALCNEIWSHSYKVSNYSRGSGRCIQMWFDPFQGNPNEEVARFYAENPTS

## CN(Cc1cnc2nc(N)nc(N)c2n1)c1ccc(C(=O)N[C@@H](CCC(=O)O)C(=O)O)cc1 [MTX, methotrexate]
  Kd: 24 µM
